Tests used:
Type in all cases: in vivo
[1] = test system: glyphosate resistant soybeans; experiment: Example 3 field test, pre-plant treatment followed by in-crop glyphosate: phytotoxicity in crop; settings: 57 days after first treatment; pre-plant (glyphosate 870; I.7 25; I.7 + glyphosate 25 + 870; I.7 + imazethapyr 25 + 70 g/ha), followed by glyphosate 870 g/ha at 42 DAT; crop planted at 12 DAT
Description: (§1) The phenyluracils I and/or the other active ingredients according to the present invention were formulated in a suitable way, either separately or in mixture, e.g. as emulsifiable concentrates (EC), soluble concentrates (SL), suspo-emulsions (SE), suspension concentrates (SC) or water-dispersible granules (WG). The formulation(s) were suspended or emulsified in water as a distribution medium immediately prior to spraying. Afterwards, the aqueous mixture was evenly sprayed on the test plots by means of finely distributing nozzles.
(§2) The test plots were of uniform size (typically between 14 and 37 square meters, each) and the distribution of treated and untreated plots was organized according to a randomised bloc design. Crops were sown in rows at a season which was typical for the region and the crop according to usual farm practice. Weeds were not sown but germinated according to the natural infestation.
(§3) For pre-plant and pre-plant burn-down treatments, the plots were treated before the crop was planted, typically 7 to 28 days prior to planting. For pre-emergence treatments, the plots were treated at planting (plus or minus two days) but before emergence. For post-emergence or in-crop treatments, the plots were treated after the emergence of the weed or crop, typically 20 to 50 days after planting. […]

[2] = test system: glyphosate resistant soybeans; experiment: Example 1 field test, pre-plant treatment: phytotoxicity in crop; settings: 44 days after treatment, crop planted at 15 DAT, use rate g/ha: glyphosate 870, I.7 25, I.7 + glyphosate 25 + 870, I.7 + imazethapyr 25 + 70, 0 = no damage, 100 = complete destruction
Description: as §1, §2, §3

[3] = test system: Common lambsquarters (CHEAL); experiment: Example 3 field test, pre-plant treatment followed by in-crop glyphosate: weed control; settings: 57 days after first treatment; pre-plant (glyphosate 870; I.7 25; I.7 + glyphosate 25 + 870; I.7 + imazethapyr 25 + 70 g/ha), followed by glyphosate 870 g/ha at 42 DAT
Description: as §1, §2, §3

Giant ragweed (AMBTR) [4] = experiment: as above; settings: 57 days after first treatment; pre-plant (glyphosate 870; I.7 25; I.7 + glyphosate 25 + 870; I.7 + imazethapyr 25 + 70 g/ha), followed by glyphosate 870 g/ha at 42 DAT
Description: as §1, §2, §3

Velvetleaf (ABUTH) [5] = experiment: Example 1 field test, pre-plant treatment: weed control; settings: 44 days after treatment, use rate g/ha: glyphosate 870, I.7 25, I.7 + glyphosate 25 + 870, I.7 + imazethapyr 25 + 70
Description: as §1, §2, §3

Giant ragweed (AMBTR) [6] = experiment: as above; settings: 44 days after treatment, use rate g/ha: glyphosate 870, I.7 25, I.7 + glyphosate 25 + 870, I.7 + imazethapyr 25 + 70
Description: as §1, §2, §3

[7] = test system: glyphosate resistant soybeans; experiment: Example 2 field test, pre-plant burn-down treatment followed by in-crop glyphosate: phytotoxicity in crop; settings: 86 days after first treatment; pre-plant burn-down (glyphosate 870 g/ha or I.7 50 g/ha), followed by glyphosate 870 g/ha at 53 DAT; crop planted at 8 DAT
Description: as §1, §2, §3

Velvetleaf (ABUTH) [8] = experiment: Example 2 field test, pre-plant burn-down treatment followed by in-crop glyphosate: weed control; settings: 86 days after first treatment; pre-plant burn-down (glyphosate 870 g/ha or I.7 50 g/ha), followed by glyphosate 870 g/ha at 53 DAT
Description: as §1, §2
(§4) For pre-plant and pre-plant burn-down treatments, the plots were treated before the crop was planted, typically 7 to 28 days prior to planting. For pre-emergence treatments, the plots were treated at planting (plus or minus two days) but before emergence. For post-emergence or in-crop treatments, the plots were treated after the emergence of the weed or crop, typically 20 to 50 days after planting.
(§5) The evaluation of the damage caused by the phenyluracils I and/or the other active ingredients according to the present invention was carried out using a scale from 0 to 100%, compared to the untreated control plots. Here, 0 means no damage and 100 means complete destruction of the plants of a respective weed or crop species.
(§6) Weed control in glyphosate resistant soybeans 86 days after the first treatment; pre-plant burn-down treatment followed by an in-crop glyphosate treatment at 53 DAT; field test.
(§7) In this example, glyphosate (potassium salt) was formulated as a 540 g/l SL and phenyluracil I.7 as a 120 g/l EC. […]

[9] = test system: Common lambsquarters (CHEAL); experiment: as above; settings: 86 days after first treatment; pre-plant burn-down (glyphosate 870 g/ha or I.7 50 g/ha), followed by glyphosate 870 g/ha at 53 DAT
Description: as §1, §2, §4, §5, §6, §7

Giant ragweed (AMBTR) [10] = experiment: as above; settings: 86 days after first treatment; pre-plant burn-down (glyphosate 870 g/ha or I.7 50 g/ha), followed by glyphosate 870 g/ha at 53 DAT
Description: as §1, §2, §4, §5, §6, §7

SMILES: O=C(O)CNCP(=O)(O)O [Glyphosate, glyphosate]
- Phytotoxicity in glyphosate resistant soybeans (% damage) [1]: 0%
- Phytotoxicity in glyphosate resistant soybeans (% damage) [2]: 0%
- Weed control (% control) Common lambsquarters (CHEAL) [3]: 83%
- Weed control (% control) Giant ragweed (AMBTR) (Giant ragweed (AMBTR) [4]): 72%
- Weed control (% control) Velvetleaf (ABUTH) (Velvetleaf (ABUTH) [5]): 17%
- Weed control (% control) Giant ragweed (AMBTR) (Giant ragweed (AMBTR) [6]): 86%
- Phytotoxicity in glyphosate resistant soybeans (% damage) [7]: 0%
- Weed control (% control) Velvetleaf (ABUTH) (Velvetleaf (ABUTH) [8]): 91%
- Weed control (% control) Common lambsquarters (CHEAL) [9]: 89%
- Weed control (% control) Giant ragweed (AMBTR) (Giant ragweed (AMBTR) [10]): 86%

From US20080318781A1, “Method of Controlling Weeds” (priority 2005, published 2008)
